Consider twelve compounds from ChEMBL document CHEMBL4665816, “Syringoleosides A-H, Secoiridoids from Syringa dilatata Flowers and Their Inhibition of NO Production in LPS-Induced RAW 264.7 Cells” (J Nat Prod, 2020).

This assay has as its system RAW264.7. The assay can be described thus: Anti-inflammatory activity in mouse RAW264.7 cells assessed as inhibition of LPS-induced NO production after 24 hrs by Griess reagent-based assay. It is filed as functional, cell-based. Particulars: RAW264.7, 24 h. (In general: The Griess reaction detects nitrite, a stable product of nitric oxide.)
What is called IC50 is the midpoint of a concentration-inhibition curve. In the case of `C/C=C1/[C@H](O[C@@H]2O[C@H](CO)[C@@H](O)[C@H](O)[C@H]2O)OC=C(C(=O)OC)[C@H]1CC(=O)OC`, the IC50 was more than 80 µM.
The result for `C/C=C1/[C@H](O[C@@H]2O[C@H](CO)[C@@H](O)[C@H](O)[C@H]2O)OC=C(C(=O)OC)[C@H]1CC(=O)OC[C@H]1O[C@@H](OCCc2ccc(O)c(O)c2)[C@H](O)[C@@H](O)[C@@H]1O` reads 48.9 µM.
Under `C/C=C1/[C@H](O[C@@H]2O[C@H](CO)[C@@H](O)[C@H](O)[C@H]2O)OC=C(C(=O)OC)[C@H]1CC(=O)OC[C@H]1O[C@@H](OCCc2ccccc2)[C@H](O)[C@@H](O)[C@@H]1O` stands 65.7 µM; under `C/C=C1/[C@H](O[C@@H]2O[C@H](CO)[C@@H](O)[C@H](O)[C@H]2O)OC=C(C(=O)OC)[C@H]1CC(=O)OC[C@H]1O[C@@H](OCc2ccccc2)[C@H](O)[C@@H](O)[C@@H]1O`, 32.5 µM.
`C/C=C1/[C@H](O[C@@H]2O[C@H](CO)[C@@H](OC(=O)/C=C/c3ccc(O)c(O)c3)[C@H](O)[C@H]2O)OC=C(C(=O)OC)[C@H]1CC(=O)O[C@@H]1[C@@H](O)[C@@H](O)[C@H](O[C@H]2[C@H](O)[C@@H](O)[C@H](OCCc3ccc(O)c(O)c3)O[C@@H]2CO)O[C@H]1C`: the IC50 was more than 80 µM.
Under `C/C=C1/[C@H](O[C@@H]2O[C@H](CO)[C@@H](O)[C@H](O)[C@H]2O)OC=C(C(=O)OC)[C@H]1CC(=O)O[C@H]1[C@H](OCCc2ccc(O)c(O)c2)O[C@H](CO)[C@@H](O)[C@@H]1O[C@@H]1O[C@@H](C)[C@H](O)[C@@H](O)[C@H]1O` stands 42.1 µM.
The result for `C/C=C1/[C@H](O[C@@H]2O[C@H](CO)[C@@H](O)[C@H](O)[C@H]2O)OC=C(C(=O)OC)[C@H]1CC(=O)OC[C@H]1O[C@@H](OCCc2ccc(O)cc2)[C@H](O)[C@@H](O)[C@@H]1O` reads 59.8 µM; that for `C/C=C1/[C@H](O[C@@H]2O[C@H](CO)[C@@H](O)[C@H](O)[C@H]2O)OC=C(C(=O)OC)[C@H]1CC(=O)O[C@H]1[C@H](O[C@@H]2OC=C(C(=O)OC)[C@@H](CC(=O)OC[C@H]3O[C@@H](OCCc4ccc(O)cc4)[C@H](O)[C@@H](O)[C@@H]3O)/C2=C\C)O[C@H](CO)[C@@H](O)[C@@H]1O`, more than 80 µM; that for `C/C=C1/[C@H](O[C@@H]2O[C@H](CO)[C@@H](O)[C@H](O)[C@H]2O)OC=C(C(=O)OC)[C@H]1CC(=O)OC[C@H]1O[C@@H](Oc2ccc(O)cc2)[C@H](O)[C@@H](O)[C@@H]1O`, 58.3 µM.
Under `C/C=C1/[C@H](O[C@@H]2O[C@H](CO)[C@@H](O)[C@H](O)[C@H]2O)OC=C(C(=O)OC)[C@H]1CC(=O)O[C@@H]1[C@@H](O)[C@H](O[C@@H]2OC=C(C(=O)OC)[C@@H](CC(=O)OC[C@H]3O[C@@H](OCCc4ccc(O)cc4)[C@H](O)[C@@H](O)[C@@H]3O)/C2=C\C)O[C@H](CO)[C@H]1O` stands more than 80 µM.
As to `C/C=C1/[C@H](O[C@@H]2O[C@H](CO)[C@@H](O)[C@H](O)[C@H]2O)OC=C(C(=O)OC)[C@H]1CC(=O)OC[C@H]1O[C@@H](Oc2ccc(/C=C/CO)cc2OC)[C@H](O)[C@@H](O)[C@@H]1O`, the IC50 is more than 80 µM.
Under `C/C=C1/[C@H](O[C@@H]2O[C@H](CO)[C@@H](O)[C@H](O)[C@H]2O)OC=C(C(=O)OC)[C@H]1CC(=O)OCCc1ccc(O)c(O)c1` [OLEUROPEIN] stands more than 80 µM.
